Laboratory results as given in patent EP3807270B1, “NOVEL HETEROARYL HETEROCYCLYL COMPOUNDS FOR THE TREATMENT OF AUTOIMMUNE DISEASE” (F. Hoffmann-La Roche AG, priority 2018, dated 2019).

Biological target: T1, hTLR9 (Homo sapiens, UniProt Q9NR96)
T1 sequence (Q9NR96 26-1032): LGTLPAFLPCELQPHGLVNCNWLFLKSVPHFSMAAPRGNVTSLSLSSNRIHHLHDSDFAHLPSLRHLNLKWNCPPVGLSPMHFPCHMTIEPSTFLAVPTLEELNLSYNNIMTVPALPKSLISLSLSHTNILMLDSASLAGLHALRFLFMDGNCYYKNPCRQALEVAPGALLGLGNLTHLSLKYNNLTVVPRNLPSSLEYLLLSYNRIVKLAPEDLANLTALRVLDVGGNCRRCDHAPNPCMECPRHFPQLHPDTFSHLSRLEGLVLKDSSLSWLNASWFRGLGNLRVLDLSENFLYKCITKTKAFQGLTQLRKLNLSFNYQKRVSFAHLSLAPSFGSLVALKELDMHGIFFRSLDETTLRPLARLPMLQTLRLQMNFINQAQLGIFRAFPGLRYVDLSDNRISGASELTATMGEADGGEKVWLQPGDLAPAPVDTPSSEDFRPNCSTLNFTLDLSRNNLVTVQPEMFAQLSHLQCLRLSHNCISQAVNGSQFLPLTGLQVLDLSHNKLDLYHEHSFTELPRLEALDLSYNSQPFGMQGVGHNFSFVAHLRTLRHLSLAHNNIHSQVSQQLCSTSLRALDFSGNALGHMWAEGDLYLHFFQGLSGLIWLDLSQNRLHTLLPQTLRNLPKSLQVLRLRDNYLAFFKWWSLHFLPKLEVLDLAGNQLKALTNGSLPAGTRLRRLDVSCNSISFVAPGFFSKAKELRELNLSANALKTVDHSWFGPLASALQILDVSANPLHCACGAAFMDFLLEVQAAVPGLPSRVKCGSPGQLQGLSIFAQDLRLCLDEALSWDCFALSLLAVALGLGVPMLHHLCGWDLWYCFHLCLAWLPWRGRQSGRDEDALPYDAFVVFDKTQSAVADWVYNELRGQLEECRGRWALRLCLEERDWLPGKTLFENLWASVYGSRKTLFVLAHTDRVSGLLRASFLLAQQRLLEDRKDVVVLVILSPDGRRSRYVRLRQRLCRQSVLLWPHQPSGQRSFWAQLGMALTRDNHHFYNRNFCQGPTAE
Assay: HEK293-Blue-hTLR-9 cells assay (SEAP reporter, ODN2006 stimulation)
Type: cell-based
Set-up: host or cells: HEK293 (HEK-Blue)
Settings: HEK293-Blue-hTLR9 cells, ODN2006, 20 hrs; read-out: HEK/hTLR9 IC50
Description: A stable HEK293-Blue-hTLR-9 cell line was purchased from InvivoGen (Cat.#: hkb-htlr9, San Diego, California, USA). These cells were originally designed for studying the stimulation of human TLR9 by monitoring the activation of NF-κB. A SEAP (secreted embryonic alkaline phosphatase) reporter gene was placed under the control of the IFN-β minimal promoter fused to five NF-κB and AP-1-binding sites. The SEAP was induced by activating NF-κB and AP-1 via stimulating HEK-Blue hTLR9 cells with TLR9 ligands. Therefore, the reporter expression was declined by TLR9 antagonist under the stimulation of a ligand, such as ODN2006 (Cat.#: tlrl-2006-1, Invivogen, San Diego, California, USA), for incubation of 20 hrs. The cell culture supernatant SEAP reporter activity was determined using QUANTI-Blue™ kit (Cat.#: rep-qb 1, Invivogen, San Diego, California, USA) at a wavelength of 640 nm, a detection medium that turns purple or blue in the presence of alkaline phosphatase.
HEK293-Blue-hTLR9 cells were incubated at a density of 250,000-450,000 cells/mL in a volume of 170 µL in a 96-well plate in Dulbecco's Modified Eagle's medium (DMEM) containing 4.5 g/L glucose, 50 U/mL penicillin, […], […], 2 mM L-glutamine, 10% (v/v) heat-inactivated fetal bovine serum with addition of 20 µL test compound in a serial dilution in the presence of final DMSO at 1% and 10 µL of 20uM ODN2006 in above DMEM, perform incubation under 37 °C in a CO2 incubator for 20 hrs. Then 20 µL of the supernatant from each well was incubated with 180 µL Quanti-blue substrate solution at 37 °C for 2 hrs and the absorbance was read at 620-655 nm using a spectrophotometer. The signaling pathway that TLR9 activation leads to downstream NF-κB activation has been widely accepted, and therefore similar reporter assay was modified for evaluating TLR9 antagonist.

SMILES | IC50 [nM]
C[C@@H]1CN(c2ccc(C#N)c3ncccc23)C[C@H](CN2CCN(c3ccc4c(n3)CCNC4)C[C@H](O)C2)O1 (single isomer, unassigned) [Example 35A] | 147
C[C@@H]1CN(c2ccc(C#N)c3ncccc23)C[C@H](CN2CCN(c3ccc4c(n3)CCNC4)C[C@@H](O)C2)O1 (single isomer, unassigned) [Example 35B] | 117
C[C@@H]1CN(c2ccc(C#N)c3ncccc23)C[C@H](CN2C[C@H]3CN(c4ccc5c(n4)CCNC5)CC[C@@H]32)O1 (single isomer, unassigned) [Example 54] | < 32
C[C@@H]1CN(c2ccc(C#N)c3ncccc23)C[C@H](CN2C[C@H]3CN(c4ccc5c(n4)CCNC5)CC[C@H]32)O1 (single isomer, unassigned) [Example 55] | < 32
C[C@@H]1CN(c2ccc(C#N)c3ncccc23)C[C@H](CN2CCN(c3ccc4c(n3)CN[C@H]4C)CC2)O1 (single isomer, unassigned) [Example 63] | 67
C[C@@H]1CN(c2ccc(C#N)c3ncccc23)C[C@H](CN2CCN(c3ccc4c(n3)CN[C@@H]4C)CC2)O1 (single isomer, unassigned) [Example 64] | 92
C[C@@H]1CN(c2ccc(C#N)c3ncccc23)C[C@H](CN2CCN(c3ccc4c(n3)[C@@H](C)NC4)CC2)O1 (single isomer, unassigned) [Example 65] | 81
C[C@@H]1CN(c2ccc(C#N)c3ncccc23)C[C@H](CN2CCN(c3ccc4c(n3)[C@H](C)NC4)CC2)O1 (single isomer, unassigned) [Example 66] | 112
C[C@@H]1CN(c2ccc(C#N)c3ncccc23)C[C@H](CN2CCN(c3cnc4c(c3)CN[C@H]4C)CC2)O1 (single isomer, unassigned) [Example 67] | 143
C[C@@H]1CN(c2ccc(C#N)c3ncccc23)C[C@H](CN2CCN(c3cnc4c(c3)CN[C@@H]4C)CC2)O1 (single isomer, unassigned) [Example 68] | 84
C[C@@H]1Cc2cc(N3CCN(C[C@H]4CN(c5ccc(C#N)c6ncccc56)C[C@@H](C)O4)CC3)ncc2CN1 (single isomer, unassigned) [Example 70] | 83
C[C@@H]1CN(c2ccc(C#N)c3ncccc23)C[C@H](CN2CCN(c3cc4c(cn3)CN[C@@H](C)C4)CC2)O1 (single isomer, unassigned) [Example 71] | 91
C[C@@H]1CN(c2ccc(C#N)c3ncccc23)C[C@H](CN2CCN(c3cc4c(cn3)[C@H](C)NCC4)CC2)O1 (single isomer, unassigned) [Example 72] | 66
C[C@@H]1CN(c2ccc(C#N)c3ncccc23)C[C@H](CN2CCN(c3cc4c(cn3)[C@@H](C)NCC4)CC2)O1 (single isomer, unassigned) [Example 73] | 82
C[C@@H]1CN(c2ccc(C#N)c3ncccc23)C[C@H](CN2CCN(c3cc4c(cn3)CCN[C@@H]4C)CC2)O1 (single isomer, unassigned) [Example 74] | 89
C[C@@H]1CN(c2ccc(C#N)c3ncccc23)C[C@H](CN2CCN(c3cc4c(cn3)CCN[C@H]4C)CC2)O1 (single isomer, unassigned) [Example 75] | 68

SMILES | IC50 [nM]
C[C@@H]1CN(c2ccc(C#N)c3ncccc23)C[C@H](CN2CCN(c3cc4c(cn3)C[C@H](C)NC4)CC2)O1 (single isomer, unassigned) [Example 76] | 97
C[C@@H]1Cc2cnc(N3CCN(C[C@H]4CN(c5ccc(C#N)c6ncccc56)C[C@@H](C)O4)CC3)cc2CN1 (single isomer, unassigned) [Example 77] | 115
C[C@@H]1CN(c2ccc(C#N)c3nccnc23)C[C@H](CN2CCN(c3ccc4c(n3)CN[C@H]4C)CC2)O1 (single isomer, unassigned) [Example 78] | 131
C[C@@H]1CN(c2ccc(C#N)c3nccnc23)C[C@H](CN2CCN(c3ccc4c(n3)CN[C@@H]4C)CC2)O1 (single isomer, unassigned) [Example 79] | 108
C[C@@H]1CN(c2ccc(C#N)c3nccnc23)C[C@H](CN2CCN(c3cc4c(cn3)C[C@H](C)NC4)CC2)O1 (single isomer, unassigned) [Example 81] | 96
C[C@@H]1Cc2cnc(N3CCN(C[C@H]4CN(c5ccc(C#N)c6nccnc56)C[C@@H](C)O4)CC3)cc2CN1 (single isomer, unassigned) [Example 82] | 192
C[C@@H]1Cc2cc(N3CCN(C[C@H]4CN(c5ccc(C#N)c6nccnc56)C[C@@H](C)O4)CC3)ncc2CN1 (single isomer, unassigned) [Example 83] | 124
C[C@@H]1CN(c2ccc(C#N)c3nccnc23)C[C@H](CN2CCN(c3cc4c(cn3)CN[C@@H](C)C4)CC2)O1 (single isomer, unassigned) [Example 84] | 90
C[C@@H]1CN(c2ccc(C#N)c3nccnc23)C[C@H](CN2CCN(c3cc4c(cn3)[C@H](C)NCC4)CC2)O1 (single isomer, unassigned) [Example 85] | 87
C[C@@H]1CN(c2ccc(C#N)c3ncccc23)C[C@H](CN2CC3[C@H](C2)OCCN3c2ccc3c(n2)CCNC3)O1 (stereo in doubt) [Example 53, cis-5-[(2R,6S)-2-methyl-6-[[4-(5,6,7,8-tetrahydro-1,6-naphthyridin-2-yl)-2,3,4a,5,7,7a-hexahydropyrrolo[3,4-b][1,4]oxazin-6-yl]methyl]morpholin-4-yl]quinoline-8-carbonitrile] | 69
C[C@@H]1CN(c2ccc(C#N)c3ncccc23)C[C@H](CN2CCN(c3cccc4c3CNC4)CC2)O1 [Example 2, 5-[(2S,6R)-2-[(4-isoindolin-4-ylpiperazin-1-yl)methyl]-6-methyl-morpholin-4-yl] quinoline-8-carbonitrile] | 58
C[C@@H]1CN(c2ccc(C#N)c3ncccc23)C[C@H](CN2CCN(c3ccc4c(c3)CNC4)[C@@H](CO)C2)O1 [Example 4, 5-[(2S,6R)-2-[[(3R)-3-(hydroxymethyl)-4-isoindolin-5-yl-piperazin-1-yl]methyl]-6-methyl-morpholin-4-yl]quinoline-8-carbonitrile] | 148
C[C@@H]1CN(c2ccc(C#N)c3ncccc23)C[C@H](CN2CCN(c3ccc4c(c3)CCNC4)CC2)O1 [Example 5, 5-[(2R,6S)-2-methyl-6-[[4-(1,2,3,4-tetrahydroisoquinolin-6-yl)piperazin-1-yl]methyl]morpholin-4-yl]quinoline-8-carbonitrile] | 64
C[C@@H]1CN(c2ccc(C#N)c3ncccc23)C[C@H](CN2CCN(c3ccc4c(c3)CNC4)CC2)O1 [Example 7, 5-[(2S,6R)-2-[(4-isoindolin-5-ylpiperazin-1-yl)methyl]-6-methyl-morpholin-4-yl] quinoline-8-carbonitrile] | 89
C[C@@H]1CN(c2ccc(C#N)c3ncsc23)C[C@H](CN2CCN(c3cnc4c(c3)CNC4)CC2)O1 [Example 8, 7-[(2S,6R)-2-[[4-(6,7-dihydro-5H-pyrrolo[3,4-b]pyridin-3-yl)piperazin-1-yl]methyl]-6-methyl-morpholin-4-yl]-1,3-benzothiazole-4-carbonitrile] | 48
